Laboratory results taken from patent publication US11970437B1, “8-((4-hydroxynaphthalen-1-yl)diazenyl)naphthalene-1,3-disulfonic acid as an antioxidant compound” (KING FAISAL UNIVERSITY, priority 2023, dated 2024).

Test: DPPH radical scavenging antioxidant test
Assay type: biochemical
Conditions: for Inhibition (radical scavenging inhibition): 0.2 mL DPPH (0.75 mM), compound 3 μM in ethanol, 30 minutes in the dark, 517 nm
Description: The antioxidant properties of the 8-((4-hydroxynaphthalen-1-yl)diazenyl)naphthalene-1,3-disulfonic acid compound were studied by adding 0.2 mL DPPH (0.75 mM)) to 8-((4-hydroxynaphthalen-1-yl)diazenyl)naphthalene-1,3-disulfonic acid (III) (3 μM) in ethanol. After 30 minutes of incubation in the dark, the absorbance was read against a blank at 517 nm. Ascorbic acid (vitamin C) was used as standard antioxidants (positive control). A blank sample was prepared by 0.2 ml of DPPH in 3 mL ethanol. A negative control sample was run using ethanol instead of the sample. The radical scavenging inhibition was calculated using the following equation: […]

Row | SMILES | Inhibition (radical scavenging inhibition) [%] | antioxidant potential (vanishing DPPH radical colors at 517 nm) (DPPH in vitro test, vitamin C as positive control)
1 | O=S(=O)(O)c1cc(S(=O)(=O)O)c2c(/N=N/c3ccc(O)c4ccccc34)cccc2c1 [Product III, 8-((4-hydroxynaphthalen-1-yl)diazenyl)naphthalene-1,3-disulfonic acid] | 52 | high potential as an antioxidant compared to vitamin C
2 | O=C1O[C@H]([C@@H](O)CO)C(O)=C1O [vit c, Ascorbic acid, reference compound] | 74 | 
